Test results from patent US10751358B2, “Multitargeted nucleoside derivatives” (priority 2017, dated 2020).

Experiments:
[1] = tested on: human colon cancer HCT-116 cells; test: HCT-116 xenograft test for in vivo oral anticancer activity; design: species or system mice
Excerpt: This example provides a description of HCT-116 xenograft test for in vivo oral anticancer activity of 6a.
Forty athymic nude mice (NCr nude, female, 5-6 weeks old, 20-25 g, Taconic) were inoculated with 6×10^6 exponentially growing human colon cancer HCT-116 cells, 1:1 ratio with Matrigel in 100 microliter into the right flank. Over the following 10 days, tumors reached a volume of 70 to 130 mm^3. Tumor volume were caliper-measured and calculated as length×width×width/2. Thirty mice were randomly allocated into three groups: (1) vehicle control group, (2) 6a test group, and (3) capecitabine (Cayman Chemical Co.) positive control group, with 10 mice into each group. Dosing solutions of each were prepared and kept refrigerated during the course of the test. Each mouse was dosed daily by oral administration.
After starting the dosing, body weights and tumor size measurements were recorded twice weekly to the end of the test.

[2] = tested on: KG-1 human acute myeloid leukemia cells; test: Cell viability assay of Promega, KG-1 cells; assay type: cell-based; conditions: for IC50: Homo sapiens, cell viability; for Ratio (IC50-value of capecitabine/IC50-value of test compound): fold potency versus capecitabine
Excerpt: Using the cell viability assay of Promega, the following IC50-values were obtained against KG-1 human acute myeloid leukemia cells (Table 3). The nucleoside carbamate capecitabine (Xeloda®) is included for comparison).

NCI-H522 = test: NCI panel growth inhibition, NCI-H522; assay type: cell-based; conditions: Homo sapiens, 10 micromolar
Excerpt: (§1) A sample of the variety of human cancer cell lines, whose growth was inhibited more than 50% by 10 micromolar concentration of the prototype drug 6a, is shown in Table 2.
(§2) The description of the human cancer cell lines used is as follows: ACHN, human renal adenocarcinoma; HL-60(TB), human acute myeloid leukemia; HCT-116, human colon carcinoma; HOP-62, human adenocarcinoma (non-small cell lung cancer); M14, human metastatic malignant melanoma; MCF7, human mammary adenocarcinoma; OVCAR-8, human ovarian carcinoma.

HCT-116 = test: NCI panel growth inhibition, HCT-116; assay type: cell-based; conditions: Homo sapiens, 10 micromolar
Excerpt: as §1, §2

OVCAR-8 = test: NCI panel growth inhibition, OVCAR-8; assay type: cell-based; conditions: Homo sapiens, 10 micromolar
Excerpt: as §1, §2

M14 = test: NCI panel growth inhibition, M14; assay type: cell-based; conditions: Homo sapiens, 10 micromolar
Excerpt: as §1, §2

[3] = tested on: National Cancer Institute's panel of human cell lines; test: National Cancer Institute's panel of human cell lines in culture; assay type: cell-based; conditions: 10 micromolar, cell lines of Table 2, read-out: growth inhibition of the sampled human cancer cell lines
Excerpt: as §1

HL60 = test: NCI panel growth inhibition, HL60; assay type: cell-based; conditions: Homo sapiens, HL-60, 10 micromolar
Excerpt: as §1, §2

MCF-7 = test: NCI panel growth inhibition, MCF-7; assay type: cell-based; conditions: Homo sapiens, MCF7, 10 micromolar
Excerpt: as §1, §2

ACHN = test: NCI panel growth inhibition, ACHN; assay type: cell-based; conditions: Homo sapiens, 10 micromolar
Excerpt: as §1, §2

[4] = molecular target: T1, ribonucleotide reductase (RR) (Homo sapiens, UniProt P23921); test: Enzyme inhibition by intracellular metabolite: ribonucleotide reductase; assay type: biochemical; conditions: major target; inactivation by covalent bond formation at the active site
T1 sequence (P23921 1-792): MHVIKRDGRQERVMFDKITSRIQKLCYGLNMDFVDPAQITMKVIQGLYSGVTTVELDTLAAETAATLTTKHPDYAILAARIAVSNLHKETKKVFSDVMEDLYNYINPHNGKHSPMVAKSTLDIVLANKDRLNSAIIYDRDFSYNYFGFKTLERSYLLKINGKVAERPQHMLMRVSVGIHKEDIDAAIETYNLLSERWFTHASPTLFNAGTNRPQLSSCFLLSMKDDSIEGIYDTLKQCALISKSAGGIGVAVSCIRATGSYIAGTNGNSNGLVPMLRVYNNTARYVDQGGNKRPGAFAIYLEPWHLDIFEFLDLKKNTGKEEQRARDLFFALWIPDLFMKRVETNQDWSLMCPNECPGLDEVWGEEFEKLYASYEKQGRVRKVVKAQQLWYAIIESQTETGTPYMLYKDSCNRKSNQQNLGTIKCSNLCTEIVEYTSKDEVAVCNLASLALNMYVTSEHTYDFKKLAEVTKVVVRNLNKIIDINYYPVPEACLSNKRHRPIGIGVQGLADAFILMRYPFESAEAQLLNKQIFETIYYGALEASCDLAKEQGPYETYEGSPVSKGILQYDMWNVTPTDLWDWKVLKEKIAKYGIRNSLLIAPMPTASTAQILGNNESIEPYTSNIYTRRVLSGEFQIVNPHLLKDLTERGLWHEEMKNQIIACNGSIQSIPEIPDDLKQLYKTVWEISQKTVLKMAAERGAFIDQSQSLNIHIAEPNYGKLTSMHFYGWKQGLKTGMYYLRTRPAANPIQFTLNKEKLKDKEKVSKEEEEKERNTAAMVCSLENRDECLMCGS
T1 sequence (P31350 1-389 partner): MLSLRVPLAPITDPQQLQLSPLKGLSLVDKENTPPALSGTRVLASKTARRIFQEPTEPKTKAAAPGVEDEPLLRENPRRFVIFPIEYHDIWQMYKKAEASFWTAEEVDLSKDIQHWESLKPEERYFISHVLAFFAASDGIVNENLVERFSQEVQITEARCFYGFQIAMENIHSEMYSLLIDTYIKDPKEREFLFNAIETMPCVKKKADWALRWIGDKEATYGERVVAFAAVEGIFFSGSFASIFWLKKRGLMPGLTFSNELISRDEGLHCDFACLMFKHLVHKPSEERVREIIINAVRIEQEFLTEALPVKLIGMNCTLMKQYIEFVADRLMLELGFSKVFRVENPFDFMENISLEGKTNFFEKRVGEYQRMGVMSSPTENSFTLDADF
Excerpt: (§3) Several intracellular targets of the present disclosure were identified as essential enzymes required for the biosynthesis and function of DNA. These enzymes are susceptible for inhibition by a multitude of cellular metabolites of the present disclosure, contributing to the observed cytotoxicity.
(§4) The inhibition of the enzyme targets, TS, RR, and MTase is irreversible, due to mechanism-based inactivation caused by the inhibitory metabolites. The molecular mechanism of the inactivation involves covalent bond formation with the sulfhydryl groups of the active site cysteine residues essential for enzyme activity (see Examples 6, 7 and 8).
F3dCDP acts as a suicide substrate of the enzyme forming a binary complex between the inhibitor and the enzyme via a covalent bond to the SH-group of the active site cysteine residue: […]

[5] = molecular target: T2, deoxycytidylate deaminase (DCTD) (Homo sapiens, UniProt P32321); test: Enzyme inhibition by intracellular metabolite: deoxycytidylate deaminase; assay type: biochemical; conditions: minor target
T2 sequence (P32321 1-178): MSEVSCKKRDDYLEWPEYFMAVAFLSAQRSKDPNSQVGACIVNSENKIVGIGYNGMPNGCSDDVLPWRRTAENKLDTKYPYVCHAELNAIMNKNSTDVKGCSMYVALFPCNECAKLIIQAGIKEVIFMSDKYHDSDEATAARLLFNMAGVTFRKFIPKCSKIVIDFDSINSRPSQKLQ
Excerpt: as §3
Intracellular esterase hydrolysis of the 5′-substituent of Formula I (R″=phosphorodiamidate), followed by cyclization leads to a cyclic phosphoester intermediate that collapses into a monophosphoramidate. Further hydrolysis by the phosphoramidase activity of HINT1 results in the formation of F3dCMP, the first intracellular phosphorylated metabolite of compounds of Formula I that serves as a substrate and competitive inhibitor of the enzyme dCMP deaminase, and is a precursor of all the other inhibitory nucleotides described above (see Table 1).

[6] = molecular target: T3, DNA polymerase alpha (Pol α) (Homo sapiens, UniProt P09884); test: Enzyme inhibition by intracellular metabolites: DNA polymerase alpha; assay type: biochemical; conditions: major target; inhibition by DNA chain termination and/or DNA fragmentation
T3 sequence (P09884 1-1462): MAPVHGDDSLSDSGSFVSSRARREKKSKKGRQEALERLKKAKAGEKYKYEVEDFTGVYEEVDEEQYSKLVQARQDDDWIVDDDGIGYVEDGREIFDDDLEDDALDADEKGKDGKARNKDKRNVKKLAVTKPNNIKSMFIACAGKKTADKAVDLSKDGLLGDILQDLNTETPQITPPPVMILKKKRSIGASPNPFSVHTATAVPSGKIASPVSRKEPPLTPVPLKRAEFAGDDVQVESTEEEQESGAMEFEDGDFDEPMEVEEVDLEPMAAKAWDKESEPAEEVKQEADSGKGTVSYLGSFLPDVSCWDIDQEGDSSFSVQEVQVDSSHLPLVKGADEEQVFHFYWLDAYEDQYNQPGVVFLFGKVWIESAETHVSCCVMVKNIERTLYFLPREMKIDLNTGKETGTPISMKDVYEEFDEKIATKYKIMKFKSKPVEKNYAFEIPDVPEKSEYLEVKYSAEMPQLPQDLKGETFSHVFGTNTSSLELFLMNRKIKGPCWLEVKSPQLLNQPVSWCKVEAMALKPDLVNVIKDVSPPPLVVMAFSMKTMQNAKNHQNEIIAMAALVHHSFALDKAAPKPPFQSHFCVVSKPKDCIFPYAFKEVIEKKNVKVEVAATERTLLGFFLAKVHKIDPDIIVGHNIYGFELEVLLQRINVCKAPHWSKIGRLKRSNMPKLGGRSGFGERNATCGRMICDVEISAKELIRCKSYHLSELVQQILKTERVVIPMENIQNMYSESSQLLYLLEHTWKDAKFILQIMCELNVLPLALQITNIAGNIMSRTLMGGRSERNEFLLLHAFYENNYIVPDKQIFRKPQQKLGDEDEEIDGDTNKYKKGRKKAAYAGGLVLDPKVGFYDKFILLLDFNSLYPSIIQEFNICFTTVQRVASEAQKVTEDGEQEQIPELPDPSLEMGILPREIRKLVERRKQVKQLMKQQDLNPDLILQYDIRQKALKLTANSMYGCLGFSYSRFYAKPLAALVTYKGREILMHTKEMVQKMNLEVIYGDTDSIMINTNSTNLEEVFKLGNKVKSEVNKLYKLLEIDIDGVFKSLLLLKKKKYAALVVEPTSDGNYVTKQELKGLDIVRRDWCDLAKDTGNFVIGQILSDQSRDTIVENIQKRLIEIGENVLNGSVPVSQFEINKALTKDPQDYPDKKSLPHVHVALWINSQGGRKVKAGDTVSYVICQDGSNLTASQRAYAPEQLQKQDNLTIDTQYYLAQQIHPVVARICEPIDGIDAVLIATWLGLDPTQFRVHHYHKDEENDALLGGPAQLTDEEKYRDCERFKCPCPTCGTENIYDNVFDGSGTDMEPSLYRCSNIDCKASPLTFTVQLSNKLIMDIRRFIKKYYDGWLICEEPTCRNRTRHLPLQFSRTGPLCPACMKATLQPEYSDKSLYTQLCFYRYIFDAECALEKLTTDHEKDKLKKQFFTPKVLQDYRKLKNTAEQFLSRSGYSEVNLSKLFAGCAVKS
Excerpt: as §3

[7] = molecular target: thymidylate synthase (TS) (Homo sapiens, UniProt P04818); test: Enzyme inhibition by intracellular metabolite: thymidylate synthase; assay type: biochemical; conditions: major target; inactivation by covalent bond formation at the active site
Chain of thymidylate synthase (TS) (P04818 whole entry): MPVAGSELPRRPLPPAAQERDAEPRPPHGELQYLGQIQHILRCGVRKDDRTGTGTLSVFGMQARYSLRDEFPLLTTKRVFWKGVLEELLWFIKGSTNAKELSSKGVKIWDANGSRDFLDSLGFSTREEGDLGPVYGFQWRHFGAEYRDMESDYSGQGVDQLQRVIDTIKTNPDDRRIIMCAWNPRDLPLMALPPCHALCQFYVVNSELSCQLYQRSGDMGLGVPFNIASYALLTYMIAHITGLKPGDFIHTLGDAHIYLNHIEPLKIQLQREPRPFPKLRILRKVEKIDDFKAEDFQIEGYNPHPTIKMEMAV
Excerpt: as §3, §4
F3dUMP acts as a suicide substrate of the enzyme thymidylate synthase by forming a covalent ternary complex with the enzyme and the cofactor 5,10-methylenetetrahydrofolate. The binding of the inhibitor to the enzyme is by a covalent bond to the SH-group of the active site cysteine residue involved in catalysis: […]

## CCCCCOC(=O)Nc1nc(=O)n([C@@H]2O[C@H](C)[C@@H](O)[C@H]2O)cc1F [Capecitabine, capecitabine, reference compound]
[1]; capecitabine 100 mg/kg vs 6a 25 mg/kg, oral
  dose of capecitabine required for anticancer activity comparable to 6a, relative to dose of 6a: about 4 times
[2]
  IC50: 8920 ± 1540 nM
  Ratio (IC50-value of capecitabine/IC50-value of test compound): 1

## Nc1nc(=O)n([C@@H]2O[C@H](CO)[C@@H](O)C2(F)F)cc1F [Compound 5, 2′-Deoxy-2′,2′,5-trifluorocytidine]
[2]
  IC50: 34.1 ± 5.27 nM
  Ratio (IC50-value of capecitabine/IC50-value of test compound): 253

## CCCCCOC(=O)Nc1nc(=O)n([C@@H]2O[C@H](CO)[C@@H](O)C2(F)F)cc1F [Compound 6a, N^4-Pentyloxycarbonyl-2′-deoxy-2′,2′,5-trifluorocytidine]
NCI-H522
  inhibition at 10 µM: 61.1%
[1]; athymic nude mice, daily oral dosing, 25 mg/kg
  in vivo oral anticancer activity (growth of human colon cancer in mice): orally active in vivo
HCT-116
  inhibition at 10 µM: 63.5%
OVCAR-8
  inhibition at 10 µM: 71.6%
M14
  inhibition at 10 µM: 85.9%
[2]
  IC50: 129 ± 10.7 nM
  Ratio (IC50-value of capecitabine/IC50-value of test compound): 69
[3]
  inhibition at 10 µM: > 50%
HL60
  inhibition at 10 µM: 75.8%
MCF-7
  inhibition at 10 µM: 51.9%
ACHN
  inhibition at 10 µM: 86.4%

## Nc1nc(=O)n([C@@H]2O[C@H](COP(=O)(O)OP(=O)(O)O)[C@@H](O)C2(F)F)cc1F [Compound F3dCDP, 2′,2′,5-trifluorodeoxycytidine diphosphate]
[4]
  Reversibility of inhibition of RR: Irreversible*

## Nc1nc(=O)n([C@@H]2O[C@H](COP(=O)(O)O)[C@@H](O)C2(F)F)cc1F [Compound F3dCMP, 2′,2′,5-trifluorodeoxycytidine monophosphate]
[5]
  Reversibility of inhibition of DCTD: reversible

## Nc1nc(=O)n([C@@H]2O[C@H](COP(=O)(O)OP(=O)(O)OP(=O)(O)O)[C@@H](O)C2(F)F)cc1F [Compound F3dCTP, 2′,2′,5-trifluorodeoxycytidine triphosphate]
[6]
  Reversibility of inhibition of Pol α: Irreversible**

## O=c1[nH]c(=O)n([C@@H]2O[C@H](COP(=O)(O)O)[C@@H](O)C2(F)F)cc1F [Compound F3dUMP, 2′,2′,5-trifluorodeoxyuridine monophosphate]
[7]
  Reversibility of inhibition of TS: Irreversible*

## O=c1[nH]c(=O)n([C@@H]2O[C@H](COP(=O)(O)OP(=O)(O)OP(=O)(O)O)[C@@H](O)C2(F)F)cc1F [Compound F3dUTP, 2′,2′,5-trifluorodeoxyuridine triphosphate]
[6]
  Reversibility of inhibition of Pol α: Irreversible**

## O=c1[nH]c(=O)n([C@H]2C[C@H](O)[C@@H](CO)O2)cc1C(F)(F)F [Compound F3dUrd]
Thymidine phosphorylase
  substrate activity for thymidine phosphorylase (cleavage to produce FU): did not serve as a substrate for thymidine phosphorylase

## O=c1[nH]c(=O)n([C@H]2C[C@H](O)[C@@H](CO)O2)cc1F [Floxuridine, reference compound]
Thymidine phosphorylase
  substrate activity for thymidine phosphorylase (cleavage to produce FU): rapidly cleaved by thymidine phosphorylase to produce FU
